Source: BindingDB's records for PubMed 32942081 (Jamia Millia Islamia, 2020)

Molecular target: T1, Amine oxidase [flavin-containing] B (Homo sapiens, UniProt P27338)
T1 sequence (P27338 whole entry): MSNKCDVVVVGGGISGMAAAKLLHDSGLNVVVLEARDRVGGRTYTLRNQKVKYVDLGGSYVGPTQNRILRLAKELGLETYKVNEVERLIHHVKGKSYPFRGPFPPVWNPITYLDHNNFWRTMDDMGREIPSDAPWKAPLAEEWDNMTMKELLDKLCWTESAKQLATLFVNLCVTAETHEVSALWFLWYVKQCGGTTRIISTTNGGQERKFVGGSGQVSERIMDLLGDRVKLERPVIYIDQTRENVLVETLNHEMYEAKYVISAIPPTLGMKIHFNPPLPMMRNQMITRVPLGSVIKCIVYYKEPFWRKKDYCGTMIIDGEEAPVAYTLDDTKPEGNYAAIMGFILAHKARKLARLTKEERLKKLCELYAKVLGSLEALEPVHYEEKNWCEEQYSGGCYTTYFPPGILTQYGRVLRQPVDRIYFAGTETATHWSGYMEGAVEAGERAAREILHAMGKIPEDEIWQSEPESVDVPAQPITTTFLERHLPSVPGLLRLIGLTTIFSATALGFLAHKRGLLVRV
Assay: Inhibition of human MAO-B using tyramine as substrate by amplex red assay

Cc1ccc(C2=NO[C@@H](c3ccc(Cl)c(Cl)c3)C2)cc1
IC50: 1.9 nM
